Results on 18 molecules are retold here after US20150299143A1, “SUBSTITUTED TRIAZOLE AND IMIDAZOLE COMPOUNDS” (HOFFMANN-LA ROCHE INC., priority 2012, published 2015).

Experiment [1] addresses T1, β 5i (chymotrypsin-like activity) (Homo sapiens, UniProt P20618+P28062).
T1 construct: protease activity associated with the proteasome complex in cultured cells; endogenous in cells; host or cells: Ramos cells
Nature of the experiment: Cell-Based Proteasome subunit activity/selectivity assay, β5i, substrate (ANW)2Rh110. To be noted: Ramos cells; substrate (ANW)2Rh110 (β5i); highest concentration tested 20 μM; read-out: Ic50:ramos:ac-(anw)2-r110. An excerpt: (§1) Cell-Based Proteasome Activity/Selectivity Assay
(§2) The Cell-Based Proteasome subunit activity/selectivity assay was a panel of 5 fluorogenic assays that independently measured the activity of β5c or β 5i (chymotrypsin-like activity), β 2c/2i (trypsin-like), and β 1c or β 1i (caspase-like) protease activity associated with the proteasome complex in cultured cells. Specifically, the following substrates were used for respective subunit activities: β 1i (PAL)2Rh110, β 1c: (LLE)2 Rh110, β 2c/2i: (KQL)2Rh110, β 5c: (WLA)2Rh110, β 5i: (ANW)2Rh110. The following procedure was followed:
(§3) Added 0.5 μl of 100× 4-fold serial diluted test compounds or DMSO to each well. Highest concentration of compound tested was 20 μM, thus compound serial dilution started from […]. Incubated for 30 minutes at 37° C. Then equilibrated at room temperature for 15 minutes. […] Shaked for one minute @ 700 rpm. Incubated for 120 min at room temperature. Then read the plates with an Envision multilabel plate reader (PerkinElmer) with 500 nm excitation/519 nm emission.

Experiment [2] deals with T2, β5c (chymotrypsin-like activity) (Homo sapiens, UniProt P20618+P28074).
T2 construct: protease activity associated with the proteasome complex in cultured cells; endogenous in cells; host or cells: Ramos cells
Nature of the experiment: Cell-Based Proteasome subunit activity/selectivity assay, β5c, substrate (WLA)2Rh110. To be noted: Ramos cells; substrate (WLA)2Rh110 (β5c); highest concentration tested 20 μM; read-out: Ic50:ramos:rh110-(wla)2.
Description: as §1, §2, §3

The test system of the next experiment is β 2c/2i (trypsin-like). Nature of the experiment: Cell-Based Proteasome subunit activity/selectivity assay, β2c/2i, substrate (KQL)2Rh110. To be noted: Ramos cells; substrate (KQL)2Rh110 (β2c/2i); highest concentration tested 20 μM.
Description: as §1, §2, §3

Another experiment addresses T3, β 1i (caspase-like) (Homo sapiens, UniProt P28065+P40306).
T3 construct: protease activity associated with the proteasome complex in cultured cells; endogenous in cells; host or cells: Ramos cells
The experiment is described as follows: Cell-Based Proteasome subunit activity/selectivity assay, β1i, substrate (PAL)2Rh110. The following applies: Ramos cells; substrate (PAL)2Rh110 (β1i); highest concentration tested 20 μM; read-out: Ic50:ramos:rh110-(pal)2.
Description: as §1, §2, §3

The next experiment concerns the target T4, β 1c (caspase-like) (Homo sapiens, UniProt P28072+Q99436).
T4 construct: protease activity associated with the proteasome complex in cultured cells; endogenous in cells; host or cells: Ramos cells
Nature of the experiment: Cell-Based Proteasome subunit activity/selectivity assay, β1c, substrate (LLE)2Rh110. The following applies: Ramos cells; substrate (LLE)2Rh110 (β1c); highest concentration tested 20 μM; read-out: Ic50:ramos:rh110-(lle)2.
Description: as §1, §2, §3

For `CCc1ccc(C(C#N)NC(=O)c2cn(CCNC(=O)C3=C(C)c4ccccc4C3)nn2)cc1` (stereo not drawn) [Example 25, 1-{2-[(3-Methyl-1H-indene-2-carbonyl)-amino]-ethyl}-1H-[1,2,3]triazole-4-carboxylic acid [cyano-(4-ethyl-phenyl)-methyl]-amide], the IC50 (commonly the midpoint of a concentration-inhibition curve) in experiment [1] was 0.072 µM; in experiment [2], ≥ 20 µM; with β 2c/2i (trypsin-like), ≥ 20 µM; at β 1i (caspase-like), ≥ 20 µM; on β 1c (caspase-like), ≥ 20 µM.

Turning to `CCCc1ccc(C(C#N)NC(=O)c2cn(CCNC(=O)c3ccc(OC)c(OC)c3OC)nn2)cc1` (stereo not drawn) [Example 64, 1-[2-(2,3,4-Trimethoxy-benzoylamino)-ethyl]-1H-[1,2,3]triazole-4-carboxylic acid [cyano-(4-propyl-phenyl)-methyl]-amide], the IC50 is 0.127 µM in experiment [1]; 8.31 µM in experiment [2]; ≥ 20 µM in the experiment with β 2c/2i (trypsin-like); 10.1 µM at β 1i (caspase-like); 9.68 µM on β 1c (caspase-like).

As to `N#CC(NC(=O)c1cn(CCNC(=O)c2ccc(C(F)(F)F)cc2F)nn1)c1ccc(C2CC2)cc1` (stereo not drawn) [Example 76, 1-[2-(2-Fluoro-4-trifluoromethyl-benzoylamino)-ethyl]-1H-[1,2,3]triazole-4-carboxylic acid [cyano-(4-cyclopropyl-phenyl)-methyl]-amide], the IC50 in experiment [1] was 0.05 µM; in experiment [2], ≥ 20 µM; in the experiment with β 2c/2i (trypsin-like), ≥ 20 µM; at β 1i (caspase-like), ≥ 20 µM; at β 1c (caspase-like), ≥ 20 µM.

Turning to `CCc1ccc(C(C#N)NC(=O)c2cn(CCNC(=O)c3ccc(C)nc3OC)nn2)cc1` (stereo not drawn) [Example 34, N-[2-(4-{[Cyano-(4-ethyl-phenyl)-methyl]-carbamoyl}-[1,2,3]triazol-1-yl)-ethyl]-2-methoxy-6-methyl-nicotinamide], the IC50 in experiment [1] was 0.259 µM; in experiment [2], ≥ 20 µM; with β 2c/2i (trypsin-like) it was ≥ 20 µM; on β 1i (caspase-like) it was ≥ 20 µM; on β 1c (caspase-like), ≥ 20 µM.

Consider `COc1cc(C(F)(F)F)ccc1C(=O)NCCn1cnc(C(=O)NC(C#N)c2ccc(Br)cc2)c1` (stereo not drawn) [Example 93, 1-[2-(2-Methoxy-4-trifluoromethyl-benzoylamino)-ethyl]-1H-imidazole-4-carboxylic acid [(4-bromo-phenyl)-cyano-methyl]-amide], for which the IC50 was 0.497 µM in experiment [1]; ≥ 20 µM in experiment [2]; ≥ 20 µM in the experiment with β 2c/2i (trypsin-like); ≥ 20 µM on β 1i (caspase-like); ≥ 20 µM on β 1c (caspase-like).

As to `CCc1ccc(C(C#N)NC(=O)c2cn(CCNC(=O)c3ccc(Cl)cn3)nn2)cc1` (stereo not drawn) [Example 44, 5-Chloro-pyridine-2-carboxylic acid [2-(4-{[cyano-(4-ethyl-phenyl)-methyl]-carbamoyl}-[1,2,3]triazol-1-yl)-ethyl]-amide], the IC50 in experiment [1] was 2.93 µM; in experiment [2], ≥ 20 µM; in the experiment with β 2c/2i (trypsin-like) it was ≥ 20 µM; on β 1i (caspase-like), ≥ 20 µM; on β 1c (caspase-like), ≥ 20 µM.

Turning to `CCc1ccc(C(C#N)NC(=O)c2cn(CCN3Cc4ccccc4C3=O)nn2)cc1` (stereo not drawn) [Example 46, 1-[2-(1-Oxo-1,3-dihydro-isoindol-2-yl)-ethyl]-1H-[1,2,3]triazole-4-carboxylic acid [cyano-(4-ethyl-phenyl)-methyl]-amide], the IC50 in experiment [1] was 5.94 µM; in experiment [2], 16.1 µM; in the experiment on β 2c/2i (trypsin-like) it was ≥ 20 µM; on β 1i (caspase-like) it was ≥ 20 µM; at β 1c (caspase-like) it was ≥ 20 µM.

For the molecule `CCc1ccc(C(C#N)NC(=O)c2cn(CCNC(=O)c3cccc4c3OCC4)nn2)cc1` (stereo not drawn) [Example 13, 1-{2-[(2,3-Dihydro-benzofuran-7-carbonyl)-amino]-ethyl}-1H-[1,2,3]triazole-4-carboxylic acid [cyano-(4-ethyl-phenyl)-methyl]-amide], the IC50 was 1.89 µM in experiment [1]; ≥ 20 µM in experiment [2]; ≥ 20 µM in the experiment with β 2c/2i (trypsin-like); ≥ 20 µM at β 1i (caspase-like); ≥ 20 µM on β 1c (caspase-like).

As to `CCc1ccc(CNC(=O)c2cn(CCNC(=O)c3ccc(OC)c(OC)c3OC)nn2)cc1` [Example 7, 1-[2-(2,3,4-Trimethoxy-benzoylamino)-ethyl]-1H-[1,2,3]triazole-4-carboxylic acid 4-ethyl-benzylamide], the IC50 in experiment [1] is 1.16 µM; in experiment [2] it was ≥ 20 µM; in the experiment on β 2c/2i (trypsin-like), ≥ 20 µM; at β 1i (caspase-like), ≥ 20 µM; at β 1c (caspase-like), ≥ 20 µM.

Regarding `CCc1ccc(C(C#N)NC(=O)c2cn(CCNC(=O)c3ccc(OC(F)(F)F)cc3OC)nn2)cc1` (stereo not drawn) [Example 11, 1-[2-(2-Methoxy-4-trifluoromethoxy-benzoylamino)-ethyl]-1H-[1,2,3]triazole-4-carboxylic acid [cyano-(4-ethyl-phenyl)-methyl]-amide], the IC50 is 0.106 µM in experiment [1]; 9.98 µM in experiment [2]; ≥ 20 µM in the experiment on β 2c/2i (trypsin-like); ≥ 20 µM on β 1i (caspase-like); ≥ 20 µM at β 1c (caspase-like).

Take `CCc1ccc(C(C#N)NC(=O)c2cn(CCNC(=O)CC3(O)Cc4ccccc4C3)nn2)cc1` (stereo not drawn) [Example 22, 1-{2-[2-(2-Hydroxy-indan-2-yl)-acetylamino]-ethyl}-1H-[1,2,3]triazole-4-carboxylic acid [cyano-(4-ethyl-phenyl)-methyl]-amide]: the IC50 was 9.95 µM in experiment [1]; ≥ 20 µM in experiment [2]; ≥ 20 µM in the experiment on β 2c/2i (trypsin-like); ≥ 20 µM on β 1i (caspase-like); ≥ 20 µM on β 1c (caspase-like).

Take `CCc1ccc(C(C#N)NC(=O)c2cn(CCNC(=O)c3ccc(C(F)(F)F)cc3OC)nn2)cc1` (stereo not drawn) [Example 23, 1-[2-(2-Methoxy-4-trifluoromethyl-benzoylamino)-ethyl]-1H-[1,2,3]triazole-4-carboxylic acid [cyano-(4-ethyl-phenyl)-methyl]-amide]: the IC50 was 0.028 µM in experiment [1]; 16.2 µM in experiment [2]; ≥ 20 µM in the experiment on β 2c/2i (trypsin-like); ≥ 20 µM at β 1i (caspase-like); ≥ 20 µM at β 1c (caspase-like).

In the case of `COc1ccc(C(=O)NCCn2cc(C(=O)NC(C#N)c3ccc(C(F)(F)F)cc3)nn2)c(F)c1` (stereo not drawn) [Example 74, 1-[2-(2-Fluoro-4-methoxy-benzoylamino)-ethyl]-1H-[1,2,3]triazole-4-carboxylic acid [cyano-(4-trifluoromethyl-phenyl)-methyl]-amide], the IC50 is 1.74 µM in experiment [1]; ≥ 20 µM in experiment [2]; ≥ 20 µM in the experiment with β 2c/2i (trypsin-like); ≥ 20 µM on β 1i (caspase-like); ≥ 20 µM on β 1c (caspase-like).

For the molecule `COc1ccc(C(=O)NCCn2cc(C(=O)NCc3ccc(C)c(C)c3)nn2)c(OC)c1OC` [Example 4, 1-[2-(2,3,4-Trimethoxy-benzoylamino)-ethyl]-1H-[1,2,3]triazole-4-carboxylic acid 3,4-dimethyl-benzylamide], the IC50 in experiment [1] is 4.11 µM; in experiment [2] it was ≥ 20 µM; with β 2c/2i (trypsin-like) it was ≥ 20 µM; on β 1i (caspase-like), ≥ 20 µM; on β 1c (caspase-like) it was ≥ 20 µM.

For the molecule `CCc1ccc(C(C#N)NC(=O)c2cn(CCNC(=O)CC3Cc4ccccc4C3)nn2)cc1` (stereo not drawn) [Example 9, 1-[2-(2-Indan-2-yl-acetylamino)-ethyl]-1H-[1,2,3]triazole-4-carboxylic acid [cyano-(4-ethyl-phenyl)-methyl]-amide], the IC50 in experiment [1] is 4.29 µM; in experiment [2] it was ≥ 20 µM; with β 2c/2i (trypsin-like), ≥ 20 µM; on β 1i (caspase-like) it was ≥ 20 µM; at β 1c (caspase-like) it was ≥ 20 µM.

Regarding `CCc1ccc(C(C#N)NC(=O)c2cn(CCNC(=O)c3cccc(OC)n3)nn2)cc1` (stereo not drawn) [Example 26, 6-Methoxy-pyridine-2-carboxylic acid [2-(4-{[cyano-(4-ethyl-phenyl)-methyl]-carbamoyl}-[1,2,3]triazol-1-yl)-ethyl]-amide], the IC50 in experiment [1] is 5.38 µM; in experiment [2], ≥ 20 µM; in the experiment with β 2c/2i (trypsin-like) it was ≥ 20 µM; on β 1i (caspase-like), ≥ 20 µM; on β 1c (caspase-like) it was ≥ 20 µM.

`COc1ccc(C(=O)NCCn2cc(C(=O)NC(C#N)c3ccc(SC)cc3)nn2)c(OC)c1OC` (stereo not drawn) [Example 2, 1-[2-(2,3,4-Trimethoxy-benzoylamino)-ethyl]-1H-[1,2,3]triazole-4-carboxylic acid [cyano-(4-methylsulfanyl-phenyl)-methyl]-amide]: the IC50 in experiment [1] is 0.15 µM; in experiment [2], ≥ 20 µM; with β 2c/2i (trypsin-like) it was ≥ 20 µM; at β 1i (caspase-like), ≥ 20 µM; on β 1c (caspase-like), ≥ 20 µM.

Consider `CCc1ccc(C(C#N)NC(=O)c2cn(CCNC(=O)c3ccc(C(F)(F)F)cc3F)cn2)cc1` (stereo not drawn) [Example 94, 1-[2-(2-Fluoro-4-trifluoromethyl-benzoylamino)-ethyl]-1H-imidazole-4-carboxylic acid [cyano-(4-ethyl-phenyl)-methyl]-amide], for which the IC50 was 1.01 µM in experiment [1]; ≥ 20 µM in experiment [2]; ≥ 20 µM in the experiment with β 2c/2i (trypsin-like); ≥ 20 µM on β 1i (caspase-like); ≥ 20 µM at β 1c (caspase-like).
